This note sets out measurements from patent publication US8063108B2, “Method for modulating microbial quorum sensing” (priority 2004, dated 2011).

The target of experiment [1] is T1, LasR transcriptional activator (Pseudomonas aeruginosa, UniProt P25084).
T1 construct: expressed in transfected cells; host or cells: Pseudomonas putida F117 carrying plasmid pKRC12 (lasR, PlasB-gfp)
The experiment can be described thus: P. putida F117 pKRC12 lasB-GFP reporter assay (secondary screens). In kind it is cell-based. To be noted: compounds 10 μM, relative fluorescence (fluorescence divided by absorbance at 600 nm) as percent of AHL induced control; for % Activity of AHL Standard, 3 oxo C10HSL: 3oxoC10HSL 100 nM; for % Activity of AHL Standard, 3 oxo C12HSL: 3oxoC12HSL 50 nM. Here is the method:
Additional screens were performed similar to screen described in the initial screen, except assays were performed in 96-well microtiter plates at a total volume of 100 μl. The reporter strain P. putida F117 pKRC12 was grown overnight at 28° C. in LB media, diluted with LB media to achieve an optical density of 0.05 at 600 nm (OD600), and 96 μl of cells were aliquoted to 96-well plates. Compounds were added at a final concentration of 100 nm or as otherwise indicated in each experiment and the bacterial cells were incubated with the compounds for approximately 30 minutes prior to the addition of 3oxoC10HSL or 3oxoC12HSL at a final concentration of 100 nM and 50 nM respectively or as indicated for each experiment. Fluorescence was measured at regular intervals after 3 hours using the Wallac Victor2 plate reader with an excitation wavelength of 485 nm and emission detection at 515 nm. Representative results are presented in FIGS. 6A and B and present the percentage of GFP expression activity as a function of expression of the AHL (3oxoC10 HSL) control. The numbers on the X axis refer to the Chembridge library reference number. Effects on growth of the antagonists were determined by measuring the optical density at 600 nm of growing bacterial cultures P. putida F 117 pKRC 12. […] (Reference for P. putida F117 pKRC12: Steidle, A., K. Sigl, R. Schuhegger, A. Ihring, M. Schmid, S. Gantner, M. Stoffels, K. Riedel, M. Givskov, A. Hartmann, C. Langebartels, and L. Eberl. 2001. Visualization of N-acylhomoserine lactone-mediated cell-cell communication between bacteria colonizing the tomato rhizosphere. Appl Environ Microbiol 67:5761-70). […]
This example presents representative results of experiments designed to test the activity of putative antagonists when challenged with different concentrations of synthetic AHLs, particularly 3oxoC12HSL. Assays were conducted with P. putida F117 pKRC12 reporter strain as described in the methods for secondary screens.
Following the initial screens to identify strong antagonists of the LasR transcriptional activator, further investigation of additional compounds in the Chembridge library was carried out. In particular, the experiments described in Example 1 identified three compounds that shared a thiocarbamate structure, as also shown in FIG. 16. To further investigate structure-activity relationships, the inventors examined the antagonist activity of 19 additional compounds with related thiocarbamate structures, using the procedures described in Example 1. The results are presented in Table 4, expressed as the percent activity of the AHL induced control. The % activity represents the relative fluorescence, which is the fluorescence observed in each assay divided by bacterial cell density as measured by absorbance at 600 nm. Compounds were assayed at a concentration of 10 μM. Assays were conducted with P. putida F117 pKRC12 reporter strain as described in the methods for secondary screens. The 3oxoC10HSL and 3oxoC12HSL were assayed at concentrations of 100 nM and 50 nM, respectively.

Experiment [2] deals with T1, LasR transcriptional activator. Briefly: Screen signal of thiocarbamate compounds (Table 1), GFP AHL sensor strain with LasR. Type of experiment: cell-based. From the text: A screening system with green fluorescent protein as a reporter gene was adapted in a non-pathogenic species, Pseudomonas putida, closely related to Pseudomonas aeruginosa. A key element involved in the regulation of Pseudomonas aeruginosa, LasR, was engineered into the GFP construct (see FIG. 2), such that expression of GFP is linked to quorum sensing. Pseudomonas putida was then subjected to induction (e.g. by 3oxoC12HsL or 3oxoC10HsL) and/or inhibition by candidate chemical compounds from a commercially available combinatorial library. About 16,000 candidate compounds were individually screened.
Many Gram negative bacteria use quorum sensing, an intercellular signaling network that relies on N-acyl homoserine lactone signal molecules (AHL), to regulate and coordinate behaviors and interactions. Expression of quorum sensing-regulated genes is contingent on a LuxR-type transcriptional regulator and the accumulation of a threshold concentration of the cognate AHL. The experiments in this example relate to screening assays carried out to identify compounds that interfere with virulence gene expression under the control of the LasR transcriptional activator, a member of the LuxR family of transcriptional regulators. The inventors screened a library of approximately 16,000 synthetic compounds for induction and inhibition of quorum sensing in a Pseudomonas putida AHL sensor strain, engineered with the LasR transcriptional activator, which controls virulence gene expression in Pseudomonas aeruginosa. LasR mediated gene expression was monitored by measuring green fluorescent protein (GFP) expression from a transcriptional fusion between GFP and the promoter from lasB, which is under the control of LasR. lasB is a virulence gene that encodes an elastase involved in pathogenesis.
The initial screen utilized 3oxoC10HSL [N-(3-oxo-decanoyl)-L-homoserine lactone] as the inducer of LasR mediated signaling to identify compounds that compete with 3oxoC10HSL for half-maximal activation of GFP expression by the AHL reporter. This strategy enables identification of agonists and antagonists of LasR by pursuing compounds that either reduce or augment the activity of the AHL. The inventors further analyzed the antagonists in competition with 3oxoC12HSL [N-(3-oxo-dodecanoyl)-L-homoserine lactone]. The activities of the agonists were further characterized in the absence of AHL.
To determine the effects of compounds on AHL-mediated quorum sensing, the reporter strain P. putida F117 pKRC12 was grown overnight at 28° C. in LB media, diluted with LB media to achieve an optical density of 0.05 at 600 nm (OD600), and 28 μl aliquots of cells were added to 384-well plates. 16,000 compounds were screened from a subset of the Chembridge DIVERSet, each at a final concentration of 100 nM. Bacterial cells at a final volume of 30 μl were incubated with the compounds for approximately 30 minutes prior to the addition of 3oxoC10HSL, at a final concentration of 100 nM. All of the compounds were dissolved in DMSO. DMSO was included in all controls. A Biomek FX liquid handler was used to dispense the reagents and bacteria into the 384-well plates. The initial screen was performed at room temperature. Fluorescence was measured at regular intervals after 3 hours using the EnVision plate reader (Perkin Elmer, inc.) with an excitation wavelength of 485 nm and emission detection at 510 nm. Compounds that reduced or increased the expression of GFP by a factor of greater than or equal three standard deviations from the mean values for controls containing 3oxoC10HSL were chosen for further analysis. Compounds that increased the expression of GFP by three standard deviations were designated as putative agonists. Compounds that decreased the expression of GFP by three standard deviations were designated as putative antagonists.

T1 sequence (P25084 whole entry): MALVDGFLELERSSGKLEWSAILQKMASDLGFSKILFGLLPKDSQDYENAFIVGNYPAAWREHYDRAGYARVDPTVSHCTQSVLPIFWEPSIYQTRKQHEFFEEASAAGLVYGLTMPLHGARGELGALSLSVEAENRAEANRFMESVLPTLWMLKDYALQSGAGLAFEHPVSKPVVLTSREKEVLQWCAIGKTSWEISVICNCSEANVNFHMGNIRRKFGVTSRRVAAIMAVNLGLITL

For `NC(=O)SCC(=O)Nc1cccc(O)c1` [Compound 6], in experiment [1], the “% Activity of AHL Standard, 3 oxo C10HSL” value worked out at 45.08% and the “% Activity of AHL Standard, 3 oxo C12HSL” value worked out at 49.68%.

For `COc1ccccc1NC(=O)CSC(N)=O` [Compound 5947535], in experiment [2], the “Signal 671/672” value is given as 99128, the “Signal 673/674” value amounted to 169923 and the “Signal 674/875” value is listed as 572429.

As for `COc1ccc(NC(=O)CSC(N)=O)cc1` [Compound 7], in experiment [1], the “% Activity of AHL Standard, 3 oxo C10HSL” value was found to be 36.45% and the “% Activity of AHL Standard, 3 oxo C12HSL” value is 49.85%.

On to `COC(=O)c1ccccc1NC(=O)CSC(N)=O` [Compound 5951673], for which, in experiment [2], the “Signal 671/672” value was found to be 135505, the “Signal 673/674” value came to 176618 and the “Signal 674/875” value is given as 1041625.

Take `NC(=O)SCC(=O)Nc1ccccc1Br` [Compound 5949674]: in experiment [2], the “Signal 671/672” value is reported as 184012, the “Signal 673/674” value is reported as 227644 and the “Signal 674/875” value came to 1811011.

Take `COC(=O)c1ccc(NC(=O)CSC(N)=O)cc1` [Compound 22]: in experiment [1], the “% Activity of AHL Standard, 3 oxo C10HSL” value is given as 57.60% and the “% Activity of AHL Standard, 3 oxo C12HSL” value is 101.0%.

Regarding `NC(=O)SCC(=O)Nc1ccccc1O` [Compound 19], in experiment [1], the “% Activity of AHL Standard, 3 oxo C10HSL” value was 38.60% and the “% Activity of AHL Standard, 3 oxo C12HSL” value worked out at 82.90%.

As for `COC(=O)c1ccc(NC(=O)CSC(N)=O)cc1` [Compound 5952057], in experiment [2], the “Signal 671/672” value amounted to 161090, the “Signal 673/674” value is listed as 186369 and the “Signal 674/875” value was 1124336.

For `COc1ccc(NC(=O)CSC(N)=O)c(OC)c1` [Compound 16], in experiment [1], the “% Activity of AHL Standard, 3 oxo C10HSL” value was 35.00% and the “% Activity of AHL Standard, 3 oxo C12HSL” value is 70.90%.

For the compound `COc1cccc(NC(=O)CSC(N)=O)c1` [Compound 5956868], in experiment [2], the “Signal 671/672” value worked out at 246680, the “Signal 673/674” value stood at 243693 and the “Signal 674/875” value worked out at 1277307.

As for `NC(=O)SCC(=O)Nc1ccc(Br)cc1` [Compound 5948339], in experiment [2], the “Signal 671/672” value amounted to 99889, the “Signal 673/674” value was 122318 and the “Signal 674/875” value is listed as 382242.

On to `CCOC(=O)c1ccccc1NC(=O)CSC(N)=O` [Compound 2], for which, in experiment [1], the “% Activity of AHL Standard, 3 oxo C10HSL” value is recorded as 35.50% and the “% Activity of AHL Standard, 3 oxo C12HSL” value was 40.09%.

For the compound `Cc1cccc(NC(=O)CSC(N)=O)c1` [Compound 10], in experiment [1], the “% Activity of AHL Standard, 3 oxo C10HSL” value is on record as 49.10% and the “% Activity of AHL Standard, 3 oxo C12HSL” value is recorded as 55.40%.

`Cc1ccc(Cl)cc1NC(=O)CSC(N)=O` [Compound 5948544]: in experiment [2], the “Signal 671/672” value worked out at 120140, the “Signal 673/674” value is reported as 98180 and the “Signal 674/875” value was 418594.

For the compound `NC(=O)SCC(=O)Nc1ccccc1O` [Compound 5947920], in experiment [2], the “Signal 671/672” value was 31966, the “Signal 673/674” value worked out at 33599 and the “Signal 674/875” value is on record as 35234.

In the case of `NC(=O)SCC(=O)Nc1ccc(Cl)c(Cl)c1` [Compound 5949527], in experiment [2], the “Signal 671/672” value was found to be 314238, the “Signal 673/674” value is 171491 and the “Signal 674/875” value is listed as 686157.

Regarding `CC(=O)c1ccc(NC(=O)CSC(N)=O)cc1` [Compound 5952389], in experiment [2], the “Signal 671/672” value came to 464145, the “Signal 673/674” value was found to be 594209 and the “Signal 674/875” value is on record as 1805803.

For the compound `COc1ccc(NC(=O)CSC(N)=O)cc1` [Compound 5948690], in experiment [2], the “Signal 671/672” value is listed as 580722, the “Signal 673/674” value worked out at 341731 and the “Signal 674/875” value worked out at 1742777.

`Cc1cccc(NC(=O)CSC(N)=O)c1C` [Compound 5956611]: in experiment [2], the “Signal 671/672” value stood at 116987, the “Signal 673/674” value is 131695 and the “Signal 674/875” value was 703195.

For the compound `Cc1cccc(NC(=O)CSC(N)=O)c1` [Compound 5955821], in experiment [2], the “Signal 671/672” value is listed as 266776, the “Signal 673/674” value turned out to be 285870 and the “Signal 674/875” value is recorded as 1575457.

With `COc1ccc(NC(=O)CSC(N)=O)c(OC)c1` [Compound 5950824], in experiment [2], the “Signal 671/672” value came to 358647, the “Signal 673/674” value is on record as 332745 and the “Signal 674/875” value amounted to 1769017.

On to `Cc1ccc(NC(=O)CSC(N)=O)c(C)c1` [Compound 5955325], for which, in experiment [2], the “Signal 671/672” value worked out at 120271, the “Signal 673/674” value turned out to be 134098 and the “Signal 674/875” value is reported as 694077.

Regarding `Cc1ccc(NC(=O)CSC(N)=O)cc1Cl` [Compound 5952472], in experiment [2], the “Signal 671/672” value is recorded as 176752, the “Signal 673/674” value was 223255 and the “Signal 674/875” value is recorded as 652341.

Regarding `NC(=O)SCC(=O)Nc1cccc(Cl)c1` [Compound 5953997], in experiment [2], the “Signal 671/672” value is listed as 71274, the “Signal 673/674” value is 87420 and the “Signal 674/875” value is on record as 218815.

Consider `NC(=O)SCC(=O)Nc1cccc(F)c1` [Compound 5949713], for which, in experiment [2], the “Signal 671/672” value amounted to 100580, the “Signal 673/674” value is listed as 97648 and the “Signal 674/875” value is reported as 265386.

`NC(=O)SCC(=O)Nc1ccccc1Cl` [Compound 5956488]: in experiment [2], the “Signal 671/672” value is 120221, the “Signal 673/674” value was determined as 145117 and the “Signal 674/875” value is 867440.

Take `NC(=O)SCC(=O)Nc1ccc(I)cc1` [Compound 5955203]: in experiment [2], the “Signal 671/672” value stood at 375590, the “Signal 673/674” value is on record as 386242 and the “Signal 674/875” value worked out at 1805793.

`CCOC(=O)c1ccccc1NC(=O)CSC(N)=O` [Compound 5952120]: in experiment [2], the “Signal 671/672” value stood at 29681, the “Signal 673/674” value came to 31840 and the “Signal 674/875” value is 32358.
